Where “and” joins values, the source holds several entries; their conditions need not be identical. Equal entries are not always repeated.
Tested on: WM3248 melanoma cells, 486 antibodies
Assay: Reverse phase protein arrays (RPPA)
Assay type: cell-based, Human
Source text: Pellets were snap frozen in liquid nitrogen and shipped to MD Anderson Cancer Center core RPPA facility for RPPA analysis (Table S5). Three biological replicates for each sample were generated.
Nomenclatures on the RPPA heatmaps: name_of_antibody.species_of_antibody.status_of_antibody. V - antibody validated; C - validation of antibody in progress; Q - antibody nonspecific; E – under evaluation; antibodies raised in M - mouse, G - goat, R - rabbit, or T - rat.

[1] = Norm_5, replicates 1-3 and Average, relative to Norm_0

Structure (SMILES): CN(C)c1cccc(Nc2cc(-c3ccccc3)nc(C3CCNCC3)n2)c1 [ARN22089, N1,N1-dimethyl-N3-(6-phenyl-2-(piperidin-4-yl)pyrimidin-4-yl)benzene-1,3-diamine]
- ATRX.R.C RPPA signal, normalized [1]: 0.868 and 1.119 and 1.361 and 1.116
- ATR_pS428.R.C RPPA signal, normalized [1]: 1.018 and 1.013 and 1.046 and 1.026
- AceCS1.R.V RPPA signal, normalized [1]: 1.085 and 0.933 and 1.019
- Akt1.R.V RPPA signal, normalized [1]: 0.915 and 0.974 and 0.812 and 0.900
- Akt1_pS473.R.V RPPA signal, normalized [1]: 1.006 and 0.879 and 0.961
- Akt2.R.V RPPA signal, normalized [1]: 0.917 (2×) and 0.925 and 0.908
- Akt2_pS474.R.C RPPA signal, normalized [1]: 1.056 and 1.115
- Akt.R.V RPPA signal, normalized [1]: 0.986 and 0.968 and 1.009
- Akt_pS473.R.V RPPA signal, normalized [1]: 2.087 and 1.212 and 1.121 and 1.473
- Akt_pT308.R.V RPPA signal, normalized [1]: 1.212 and 0.937 and 1.110
- Ambra1_pS52.R.C RPPA signal, normalized [1]: 0.888 and 0.910 and 0.903 and 0.900
- Annexin.I.M.V RPPA signal, normalized [1]: 0.981 and 1.012 and 1.278
- Annexin.VII.M.V RPPA signal, normalized [1]: 1.019 and 0.975 and 0.977 and 0.990
- Atg3.R.V RPPA signal, normalized [1]: 1.081 and 0.975 and 1.056
- Atg4B.R.C RPPA signal, normalized [1]: 1.096 and 1.370 and 1.167
- Atg5.R.C RPPA signal, normalized [1]: 1.011 and 1.078 and 1.020
- Atg7.R.V RPPA signal, normalized [1]: 1.022 and 1.027
- Aurora.A.R.C RPPA signal, normalized [1]: 0.652 and 0.973 and 0.927 and 0.851
- Aurora.ABC_pT288_pT232_pT198.R.C RPPA signal, normalized [1]: 0.793 and 0.871 and 0.899 and 0.855
- Aurora.B.R.V RPPA signal, normalized [1]: 0.896 and 1.084 and 0.923 and 0.968
- Axl.R.V RPPA signal, normalized [1]: 0.968 and 1.169 and 1.152 and 1.097
- B7.H3.R.C RPPA signal, normalized [1]: 1.106 and 0.952 and 0.992 and 1.017
- B7.H4.R.C RPPA signal, normalized [1]: 1.026 and 0.982 and 1.007 and 1.005
- B.Raf.R.C RPPA signal, normalized [1]: 1.062 and 1.061
- B.Raf_pS445.R.V RPPA signal, normalized [1]: 1.018 and 1.017 and 1.057 and 1.031
- BAP1.M.V RPPA signal, normalized [1]: 0.935 and 0.995 and 0.932 and 0.954
- BCL2A1.R.V RPPA signal, normalized [1]: 1.271 and 0.801 and 1.003
- BMK1.Erk5_pT218_Y220.R.V RPPA signal, normalized [1]: 0.965 and 0.943 and 0.924
- BRCA1.M.C RPPA signal, normalized [1]: 0.876 and 0.959 and 0.998 and 0.944
- BRD4.R.V RPPA signal, normalized [1]: 1.085 and 1.161 and 1.113
- Bad_pS112.R.V RPPA signal, normalized [1]: 1.029 and 1.014 and 1.062 and 1.035
- Bak.R.C RPPA signal, normalized [1]: 1.012 and 1.001 and 1.061 and 1.025
- Bax.R.V RPPA signal, normalized [1]: 1.015 and 1.032 and 0.955 and 1.001
- Bcl2.R.C RPPA signal, normalized [1]: 0.966 and 1.014 and 0.939 and 0.973
- Bcl.xL.R.V RPPA signal, normalized [1]: 1.144 and 0.772 and 0.984
- Beclin.R.C RPPA signal, normalized [1]: 0.940 and 1.010 and 0.868 and 0.939
- BiP.GRP78.M.C RPPA signal, normalized [1]: 0.904 and 0.981 and 0.932 and 0.939
- Bid.R.C RPPA signal, normalized [1]: 1.008 and 0.999 and 1.060 and 1.022
- Bim.R.V RPPA signal, normalized [1]: 0.866 and 0.980 and 0.919
- X4E.BP1.R.V RPPA signal, normalized [1]: 0.986 and 1.022 and 1.747 and 1.252
- X4E.BP1_pS65.R.V RPPA signal, normalized [1]: 1.142 and 1.063 and 0.945 and 1.050
- X4E.BP1_pT37_T46.R.V RPPA signal, normalized [1]: 1.104 and 1.054 (2×)
- X14.3.3.zeta.R.V RPPA signal, normalized [1]: 0.999 and 1.014
- X14.3.3βR.V RPPA signal, normalized [1]: 0.972 and 0.950 and 1.017 and 0.980
- X14.3.3εM.C RPPA signal, normalized [1]: 0.936 and 0.999 and 0.976 and 0.971
- X53BP1.R.V RPPA signal, normalized [1]: 0.978 and 0.924 and 0.982
- b.Actin.R.C RPPA signal, normalized [1]: 0.918 and 0.939 and 0.975
- b.Catenin.R.V RPPA signal, normalized [1]: 0.994 and 0.895 and 0.845
- b.Catenin_pT41_S45.R.V RPPA signal, normalized [1]: 1.007 and 0.992 and 1.022
- c.Abl.R.V RPPA signal, normalized [1]: 1.034 and 1.085 and 1.017
- c.Abl_pY412.R.C RPPA signal, normalized [1]: 0.992 and 0.994 and 1.009
- c.IAP2.R.C RPPA signal, normalized [1]: 1.048 and 1.023
- C.Raf.R.C normalized signal (Norm_5 Average): 0.955
- C.Raf_pS338.R.V normalized signal (Norm_5 Average): 1.097
- CA9.R.C normalized signal (Norm_5 Average): 0.944
- CD2.M.C normalized signal (Norm_5 Average): 0.959
- CD4.R.V normalized signal (Norm_5 Average): 1.051
- CD5.M.C normalized signal (Norm_5 Average): 0.995
- CD20.R.C normalized signal (Norm_5 Average): 0.920
- CD26.R.V normalized signal (Norm_5 Average): 0.984
- CD29.M.V normalized signal (Norm_5 Average): 0.963
- CD38.R.C normalized signal (Norm_5 Average): 1.035
- CD44.R.C normalized signal (Norm_5 Average): 0.944
- CD45.M.V normalized signal (Norm_5 Average): 0.967
- CD49b.M.V normalized signal (Norm_5 Average): 0.979
- CD68.M.C normalized signal (Norm_5 Average): 0.978
- CD74.M.V normalized signal (Norm_5 Average): 0.927
- CD134.R.V normalized signal (Norm_5 Average): 0.971
- CD171.M.V normalized signal (Norm_5 Average): 0.783
- CDK9.R.V normalized signal (Norm_5 Average): 0.955
- CDKN2A.R.C normalized signal (Norm_5 Average): 0.941
- CDT1.R.V normalized signal (Norm_5 Average): 0.908
- CENP.A.R.V normalized signal (Norm_5 Average): 0.910
- CHD1L.R.V normalized signal (Norm_5 Average): 1.009
- COG3.R.V normalized signal (Norm_5 Average): 1.046
- CRABP1.R.C normalized signal (Norm_5 Average): 0.948
- CRABP2.R.V normalized signal (Norm_5 Average): 0.874
- CSK.R.C normalized signal (Norm_5 Average): 0.850
- Calnexin.R.V normalized signal (Norm_5 Average): 0.963
- Caspase.3.cleaved.R.C normalized signal (Norm_5 Average): 1.016
- Caspase.7.cleaved..R.C normalized signal (Norm_5 Average): 1.054
- Caspase.8.M.Q normalized signal (Norm_5 Average): 0.985
